# Reference: ChEMBL document CHEMBL3886209, “Benzimidazole-imidazole derivatives” (2016)
# Tests used:
# Nonstructural protein 5A = Nonstructural protein 5A (Hepatitis C virus, UniProt Q5L478); assay: (§1) Transient Replicon Assay: In a transient set-up, a Huh-7 lunet hepatoma cell line was transiently transfected with an autonomously replicating RNA encoding a bi-cistronic expression construct. This construct comprises a firefly luciferase reporter gene preceding the NS3-NS5B subgenomic region of HCV (genotype 1a H77 or 1b Con1). Translation of the HCV subgenomic region is mediated by an internal ribosome entry site of encephalomyocarditis virus. The construct is furthermore flanked by 5' and 3' untranslated regions of HCV (genotype 1a H77 or 1b Con 1, respectively), which allow for replication of the RNA. In addition to the wild-type constructs, site-directed mutations were introduced into the transient HCV genotype 1b replicon in the gene encoding for the non-structural protein 5A (NS5A). More precisely, amino acid residues 28, 30, 31 and 93 in NS5A were independently altered. Cells were plated in 384 well plates in the presence of test and control compounds, which were added in various concentrations. Following an incubation of two days, replication of the HCV subgenomic replicon RNA was measured by assaying luciferase activity (using standard luciferase assay substrates and reagents and a Perkin Elmer ViewLux™ ultraHTS microplate imager). HCV subgenomic replicon containing cells in the control cultures have high luciferase expression in the absence of any inhibitor. The inhibitory activity of the compound was monitored, enabling a dose-response curve for each test compound.; format: cell-based
# [1] = as §1; format: cell-based
# [2] = Stable Replicon Assay: The assay utilized the stably transfected cell line Huh-7 luc/neo (hereafter referred to as Huh-Luc). This cell line harbors an RNA encoding a bicistronic expression construct comprising the wild type NS3-NS5B regions of HCV type 1b translated from an Internal Ribosome Entry Site (IRES) from encephalomyocarditis virus (EMCV), preceded by a reporter portion (FfL-luciferase), and a selectable marker portion (neoR, neomycine phosphotransferase). The construct is flanked by 5' and 3' NTRs (non-translated regions) from HCV type 1b. Continued culture of the replicon cells in the presence of G418 (neoR) is dependent on the replication of the HCV RNA. The stably transfected replicon cells that replicate HCV RNA autonomously and to high levels, encoding inter alia luciferase, were used for screening the antiviral compounds. The replicon cells were plated in 384 well plates in the presence of the test and control compounds which were added in various concentrations. Following an incubation of three days, HCV replication was measured by assaying luciferase activity (using standard luciferase assay substrates and reagents and a Perkin Elmer ViewLux™ ultraHTS microplate imager). Replicon cells in the control cultures have high luciferase expression in the absence of any inhibitor. The inhibitory activity of the compound was monitored on the Huh-Luc cells, enabling a dose-response curve for each test compound.
compound,measurement,setting,value
CC[C@H](C)[C@H](NC(=O)OC)C(=O)N1CCC[C@H]1c1nc2ccc(-c3ccc4cc(-c5cnc([C@@H]6CCCN6C(=O)[C@@H](NC(=O)OC)C(C)C)[nH]5)ccc4c3)cc2[nH]1,EC50,Nonstructural protein 5A,< 13 pM
COC(=O)N[C@H](C(=O)N1CCC[C@H]1c1ncc(-c2ccc3cc(-c4ccc5nc([C@@H]6CCCN6C(=O)[C@@H](NC(=O)OC)[C@@H](C)OC)[nH]c5c4)ccc3c2)[nH]1)C(C)C,EC50,Nonstructural protein 5A,< 17 pM
CC[C@@H](C)[C@H](NC(=O)OC)C(=O)N1CCC[C@H]1c1ncc(-c2ccc3cc(-c4ccc5nc([C@@H]6CCCN6C(=O)[C@@H](NC(=O)OC)[C@H](C)CC)[nH]c5c4)ccc3c2)[nH]1,EC50,[1],2 pM
same,EC50,[2],3 pM
CC[C@H](C)[C@H](NC(=O)OC)C(=O)N1CCC[C@H]1c1nc2cc(-c3ccc4cc(-c5cnc([C@@H]6CCCN6C(=O)[C@@H](NC(=O)OC)[C@@H](C)OC)[nH]5)ccc4c3)ccc2[nH]1,EC50,[1],4 pM
same,EC50,[2],3 pM
COC(=O)N[C@H](C(=O)N1CCC[C@H]1c1nc2ccc(-c3ccc4cc(-c5cnc([C@@H]6CCCN6C(=O)[C@@H](NC(=O)OC)[C@@H](C)OC)[nH]5)ccc4c3)cc2[nH]1)C(C)C,EC50,[2],6 pM
